Tests used:
[1] = Test-tube determination of anionic character: dye mixed with organoclay, clean clay or quat in water, centrifuged, judged visually; format: physicochemical; settings: for Ionic character of the dye concluded from the test tubes: conclusion from Table 1 observations
Method: Thus, the molecule or ion can be tested in order to determine whether it has an anionic character (and thus can undergo the present method) or a cationic character or a neutral character. In testing certain molecules or ions, the procedure described below was employed.
Using Jarocol Straw Yellow dye as a representative example, four 1 mg samples of the dye were weighed and placed in 4 test tubes.
Subsequently, 10 mL of water was added to each of the four test tubes, and all of the samples were mixed well for 30 seconds. The samples from each of the test tubes were then centrifuged for 15 minutes in a laboratory scale centrifuge.
The analysis herein was performed visually, since the six samples tested were dyes. […] For example, for a non-dye sample, the clay may be separated from the water, both parts may be taken to dryness, and the IR spectrum of each may be recorded.

[2] = Equivalence point of anionic dye added to organoclay (water phase begins to turn a weak color); format: physicochemical
Excerpt: The objective of the present Example was not only to determine the equivalence points at a fixed clay:quat ratio for the four anionic dyes listed above, but also to determine the effects that varying the clay:quat ratio had on the dye equivalence. The equivalence point for each anionic dye was recognized as the moment when the water phase of the anionic dye/organoclay composition began to turn a weak color. In other words, the equivalence point for each dye indicated the point at which the anionic dye would bleed or fail to be dispersible when the dye/organoclay composition is placed in an aqueous environment. This equivalence point, then, also indicates the point at which the weak bonding sites on the clay have been satisfied.
Determination of the equivalence point for the four anionic dyes began with the preparation of the organoclay and the subsequent addition of the dye to form the anionic dye/organoclay compositions. The organoclay, having a clay:quat ratio of 1.0:0.77, was prepared by first heating 150 grams of clay slurry (wherein the clay slurry comprises 3.24 grams of bentonite clay and thus comprises 2.16% solids) on a hot plate to approximately 65° C. Simultaneously, 2.495 grams of quat were dissolved in hot water. The quat used in this Example was Adogen 442, and the solution contained a quat:water ratio of 1:20. The quat solution was placed on the same hot plate and heated to 65° C., while being stirred to aid in the dissolution of the quat.
The bentonite clay slurry was added to a Waring blender and was allowed to mix under high speed agitation (speed 6) for about 1 minute. The quat solution was then added slowly to the clay slurry and was allowed to react for approximately 25-30 minutes. After this time, the blender was stopped for a few seconds to ensure adequate floccing.
The process described above was repeated using several different clay:quat ratios including 1:0.5 and 1:0.6 (less quat than the experiment described above) and 1:0.9 (an excess of quat with respect to the experiment described above).

[3] = Clay:Quat Ratio of 1:0.77, 3.24 g bentonite clay, quat Adogen 442

Compound	Ionic character of the dye concluded from the test tubes [1]	Equivalence Point [2, 3]	also measured
O=C(O)c1nn(-c2ccc(S(=O)(=O)O)cc2)c(O)c1N=Nc1ccc(S(=O)(=O)O)cc1 [FD&C Yellow No. 5]	anionic in nature	–	–
Cc1ccc(N=Nc2c([O-])c(C(=O)O)cc3ccccc23)c(S(=O)(=O)[O-])c1.[Na+].[Na+] [Lithol Rubine B]	requisite anionic character	0.4103 grams	Test Tube 3 (10 mg Quat) visual observation ([1]; 1 mg sample + 10 mg quat, 10 mL water, mixed 30 seconds, centrifuged 15 minutes): the quat layer was dark red and the water layer was clear; Test Tube 4 (Control, sample only) visual observation ([1]; 1 mg sample only, 10 mL water, mixed 30 seconds, centrifuged 15 minutes): Water was red; Equivalence Point ([2]; Clay:Quat Ratio of 1:0.5): 0.0693 grams; Equivalence Point ([2]; Clay:Quat Ratio of 1:0.6): 0.1471 grams; Color change of dye on incorporation into organoclay ([2]; clay:quat ratios of 1:0.77, 1:0.6 and 1:0.5): color change took place
CN(C)c1ccc2nc3ccc(=[N+](C)C)cc-3sc2c1 [Methylene Blue, reference compound]	cationic in nature	–	–
D&C Green No. 5	–	0.4853 grams	–
FD&C Blue No. 1	anionic in nature	0.3750 grams	–
